Results on 24 compounds are retold here after patent publication EP4703359A1 (Shanghai Simr Biotechnology Co., Ltd., priority 2023, dated 2024).

Usually Ki stands for a measure of affinity in units of concentration, obtained from inhibition or displacement.

The target in test [1] is T1, α2-GABAA receptor (Homo sapiens, UniProt P18507+P47869).
T1 construct: expressed in transfected cells
The test is described as follows: Radioactive ligand (3H-flunitrazepam) competitive binding assay, BZD site of membrane proteins of α2-GABAAR-HEK293 cells. From the text:
The α subunit, β subunit, and γ subunit are indispensable for forming a fully functional GABAA receptor. In this example, HEK293 cells stably expressing α2-GABAA receptors (α2-GABAAR) were constructed and screened respectively via liposome transfection (Felgner, P.L., et al. Proceedings of the National Academy of Sciences, 1987, 84: 7413-7417). The α2-GABAAR-HEK293 cell model co-expresses the α2 subunit (protein sequence referenced under GenBank accession number: NM_000807.4), β3 subunit (protein sequence referenced under GenBank accession number: NM_000814.5), and γ2 subunit (protein sequence referenced under GenBank accession number: NM_000816.3).
The above cell lines were subcultured. α2-GABAAR-HEK293 cells were amplified for testing the affinity of compounds to the benzodiazepine (BZD) site of GABAA receptors. Some of the α2-GABAAR-HEK293 cells in suspension during subculturing were plated on glass slides pre-treated with Poly-D-Lysine for electrophysiological testing (method reference: Patent CN 107344936 A, paragraph 0586).
The affinity of the compound for the α2-GABAA receptor was determined by competing with ^3H-flunitrazepam (isotope ^3H-labeled flunitrazepam) for binding to the BZD site of membrane proteins in HEK293 cells stably expressing human α2-GABAAR.
Membrane preparation: Cells were suspended in 50 mM Tris-HCl buffer (pH=7.4), homogenized on ice using a homogenizer for 20 seconds with 10 repetitions, and centrifuged at 4°C, 1000g for 10 minutes. The supernatant was collected, and the above steps were repeated. The supernatant was centrifuged at 4°C (33,800 × g; Thermo, rotor: A27-8x50) for 60 minutes, and the pellet was resuspended in Tris buffer (50 mM Tris-HCl, 10 mM MgCl2, 0.5 mM EDTA, 10% glycerol). The protein concentration was determined using the bicinchoninic acid (BCA) protein assay based on the copper ion reduction method (BCA kit purchased from Pierce (Annoron)). Aliquots of 1 mL were prepared and stored at -80°C.
Radioactive ligand competitive binding assay: This assay was conducted in a 200 µL system (96-well plate), containing 100 µL of cell membrane. The concentration of ^3H-flunitrazepam was 1 nM, and the concentration of the test compound ranged from […]. Flumazenil was used as a control. The low signal control well (Low Control, LC) was added with 1 µL of 2 mM flumazenil (final concentration 10 µM), while the high signal control well (High Control, HC) was added with 1 µL of dimethyl sulfoxide. The final concentration of the target membrane protein was 5 µg/well. All test compound stock solutions were prepared as 10 mM solutions in dimethyl sulfoxide. The working concentration of the samples was prepared by diluting all samples to 0.2 mM with dimethyl sulfoxide, followed by a 4-fold serial dilution to obtain a total of 8 concentration gradients. The 96-well plate was sealed with sealing film and then incubated on a shaker at room temperature for 1 hour. The GF/C filter plate was also soaked with a soaking buffer (0.3% PEI (polyethyleneimine, purchased from: Sigma-Aldrich, model: P314), stored at 4°C) for at least 0.5 hours. After the incubation was completed, the mixture was collected onto a GF/C filter plate using a cell harvester and washed four times with wash buffer (50 mM Tris-HCl, pH 7.4, stored at 4°C). After drying in a 50°C oven for 1 hour, the dried GF/C filter plate was sealed at the bottom with a film. The residual radioactivity on the filter membrane was detected using liquid scintillation counting. Each well was filled with 50 µL of scintillation fluid and sealed. Readings were taken using a Microbeta^2 (microplate counter, purchased from PerkinElmer, model: CNLL0153). The inhibitory activity of the test sample on the binding of ^3H-flunitrazepam to GABAA receptor membrane protein was calculated. […]

For test [2], the target named is T1, α2-GABAA receptor. Description: Whole-cell patch-clamp electrophysiology, positive allosteric modulatory activity in α2-GABAAR-HEK293 cells. Format: cell-based. Particulars: compound 100 nM, GABA 0.10 to 0.11 µM (approximately EC7-8), normalized to reference compound CVL-865 (= 100%); for Emax at 0.1 µM: read-out: α2-GABAAR Positive allosteric modulatory activity. The method, boiled down:
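HEK293 cells stably co-expressing α2β3γ2 GABAA receptor, whole-cell patch clamp at -60 mV. Compounds at 100 nM final applied with GABA 0.10–0.11 µM (~EC7-8) after GABA-only current stabilized. […]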
(In general: In patch-clamp work, channel activity is measured electrically.)

[3] abbreviates: competition with 1 nM 3H-flunitrazepam; HEK293 membranes expressing α2, β3, γ2 subunits; Ki calculated from IC50; read-out: α2 Ki.

Where two headings read alike, the source gives them in different places.

Regarding `COc1cccc(F)c1-c1cccn2c(N)c(C(=O)NCc3ccccc3)nc12` [Example 19, 3-Amino-N-benzyl-8-(2-fluoro-6-methoxyphenyl)imidazo[1,2-a]pyridine-2-carboxamide], the inhibition constant Ki in test [1] (setting [3]) is 13.9 nM. The Emax at 0.1 µM in test [2] was 65%.
The corresponding values for `COc1cccc(F)c1-c1cccn2c(N)c(C(=O)NCCC(F)(F)F)nc12` [Example 25, 3-Amino-8-(2-fluoro-6-methoxyphenyl)-N-(3,3,3-trifluoropropyl)imidazo[1,2-a]pyridine-2-carboxamide] are 28.8 nM and 91%.
The corresponding values for `CCCCNC(=O)c1nc2c(-c3c(F)cccc3OC)cccn2c1N` [Example 26, 3-Amino-8-(2-fluoro-6-methoxyphenyl)-N-butylimidazo[1,2-a]pyridine-2-carboxamide] are 17.8 nM and 97%.
For `COc1cccc(F)c1-c1cccn2c(N)c(C(=O)NCCCF)nc12` [Example 27, 3-Amino-8-(2-fluoro-6-methoxyphenyl)-N-(3-fluoropropyl)imidazo[1,2-a]pyridine-2-carboxamide] the same measures were 32 nM and 84%.
Consider `COc1ccc(F)c(F)c1-c1cccn2c(N)c(C(=O)NC3CC(C)C3)nc12` (stereo not drawn) [Example 32, 3-Amino-8-(2,3-difluoro-6-methoxyphenyl)-N-(3-methylcyclobutyl)imidazo[1,2-a]pyridine-2-carboxamide], for which the Ki in test [1] (setting [3]) is 7.33 nM. The Emax at 0.1 µM in test [2] worked out at 50%.
For `COc1ccc(C)cc1-c1cccn2c(N)c(C(=O)NC3CC(C)C3)nc12` (stereo not drawn) [Example 33, 3-Amino-8-(2-methoxy-5-methylphenyl)-N-(3-methylcyclobutyl)imidazo[1,2-a]pyridine-2-carboxamide] the same measures were 15.5 nM and 155%.
Turning to `COc1ccc(C#N)cc1-c1cccn2c(N)c(C(=O)NC3CC(C)C3)nc12` (stereo not drawn) [Example 34, 3-Amino-8-(5-cyano-2-methoxyphenyl)-N-(3-methylcyclobutyl)imidazo[1,2-a]pyridine-2-carboxamide], in test [1] (setting [3]), the Ki was 5.07 nM. For the same compound, the Emax at 0.1 µM in test [2] is 101%.
For `CCCNC(=O)c1nc2c(-c3cccc(C#N)c3)cccn2c1N` [Example 35, 3-Amino-8-(3-cyanophenyl)-N-propylimidazo[1,2-a]pyridine-2-carboxamide] the same measures were 13.3 nM and 108%.
Regarding `CCCNC(=O)c1nc2c(-c3cccc(CC#N)c3)cccn2c1N` [Example 36, 3-amino-8-(3-(cyanomethyl)phenyl)-N-propylimidazo[1,2-a]pyridine-2-carboxamide], the Ki in test [1] (setting [3]) is 21.2 nM. Besides, the Emax at 0.1 µM in test [2] was found to be 181%.
Take `CCCNC(=O)c1nc2c(-c3cccc(CCC#N)c3)cccn2c1N` [Example 37, 3-Amino-8-(3-(2-cyanoethyl)phenyl)-N-propylimidazo[1,2-a]pyridine-2-carboxamide]: the Ki in test [1] (setting [3]) was 33.6 nM. The Emax at 0.1 µM in test [2] was 105%.
The corresponding values for `CCCNC(=O)c1nc2c(-c3cccc(F)c3)cccn2c1N` [Example 46, 3-Amino-8-(3-fluorophenyl)-N-propylimidazo[1,2-a]pyridine-2-carboxamide] are 18.7 nM and 50%.
The corresponding values for `CCCNC(=O)c1nc2c(-c3cccc(C)c3)cccn2c1N` [Example 48, 3-Amino-N-propyl-8-(3-methylphenyl)imidazo[1,2-a]pyridine-2-carboxamide] are 14.2 nM and 71%.
Turning to `CCCNC(=O)c1nc2c(-c3cc(C)ccc3OC)cccn2c1N` [Example 49, 3-Amino-8-(2-methoxy-5-methylphenyl)-N-propylimidazo[1,2-a]pyridine-2-carboxamide], the Ki in test [1] (setting [3]) is 19.2 nM. The Emax at 0.1 µM in test [2] was found to be 156%.
In the case of `CCCNC(=O)c1nc2c(-c3cc(C)ccc3F)cccn2c1N` [Example 50, 3-Amino-8-(2-fluoro-5-methylphenyl)-N-propylimidazo[1,2-a]pyridine-2-carboxamide], the Ki in test [1] (setting [3]) is 3.95 nM. The Emax at 0.1 µM in test [2] was 104%.
For `CCCNC(=O)c1nc2c(-c3cc(F)ccc3OC)cccn2c1N` [Example 51], the inhibition constant Ki in test [1] (read-out: α2 Ki; competition with 1 nM 3H-flunitrazepam; HEK293 membranes expressing α2, β3, γ2 subunits; Ki calculated from IC50) is 26 nM. Moreover, in test [2], the “α2-GABAAR Positive allosteric modulatory activity” value was 121%.
Turning to `CCCNC(=O)c1nc2c(-c3cc(F)ccc3F)cccn2c1N` [Example 52, 3-Amino-8-(2,5-difluorophenyl)-N-propylimidazo[1,2-a]pyridine-2-carboxamide], the Ki in test [1] (setting [3]) was 11.2 nM. For the same compound, in test [2], the Emax at 0.1 µM was 63%.
Consider `CCCNC(=O)c1nc2c(-c3ccc(F)cc3OC)cccn2c1N` [Example 53, 3-Amino-8-(4-fluoro-2-methoxyphenyl)-N-propylimidazo[1,2-a]pyridine-2-carboxamide], for which the Ki in test [1] (setting [3]) was 57 nM. Further, the Emax at 0.1 µM in test [2] turned out to be 92%.
In the case of `CCCNC(=O)c1nc2c(-c3cc(F)cc(C#N)c3)cccn2c1N` [Example 55, 3-Amino-8-(3-cyano-5-fluorophenyl)-N-propylimidazo[1,2-a]pyridine-2-carboxamide], in test [1] (setting [3]), the Ki is 27.8 nM. Further, the Emax at 0.1 µM in test [2] was determined as 89%.
The corresponding values for `CCCNC(=O)c1nc2c(-c3ccc(F)c(C#N)c3)cccn2c1N` [Example 56, 3-Amino-8-(3-cyano-4-fluorophenyl)-N-propylimidazo[1,2-a]pyridine-2-carboxamide] are 38.2 nM and 95%.
As to `CCCNC(=O)c1nc2c(-c3cccc(C#N)c3F)cccn2c1N` [Example 57, 3-Amino-8-(3-cyano-2-fluorophenyl)-N-propylimidazo[1,2-a]pyridine-2-carboxamide], in test [1] (setting [3]), the inhibitory constant (Ki) is 3.32 nM. In addition, the Emax at 0.1 µM in test [2] was found to be 167%.
On to `CCCNC(=O)c1nc2c(-c3cc(C(F)(F)F)ccc3OC)cccn2c1N` [Example 58, 3-Amino-8-(2-methoxy-5-(trifluoromethyl)phenyl)-N-propylimidazo[1,2-a]pyridine-2-carboxamide], for which, in test [1] (setting [3]), the Ki is 34.5 nM. Besides, the Emax at 0.1 µM in test [2] came to 103%.
The corresponding values for `CCCNC(=O)c1nc2c(-c3cc(C#N)ccc3OC)cccn2c1N` [Example 60, 3-Amino-8-(5-cyano-2-methoxyphenyl)-N-propylimidazo[1,2-a]pyridine-2-carboxamide] are 5.7 nM and 140%.
On to `CCCNC(=O)c1nc2c(-c3ccccc3OC)cccn2c1N` [Example 61, 3-Amino-8-(2-methoxyphenyl)-N-propylimidazo[1,2-a]pyridine-2-carboxamide], for which the Ki in test [1] (setting [3]) was 39.4 nM. The Emax at 0.1 µM in test [2] was 91%.
The corresponding values for `CCCNC(=O)c1nc2c(-c3cc(Cl)ccc3OC)cccn2c1N` [Example 62, 3-Amino-8-(5-chloro-2-methoxyphenyl)-N-propylimidazo[1,2-a]pyridine-2-carboxamide] are 5.29 nM and 192%.
